The structures appear in SMILES notation.

In the test the target is USP7 (Homo sapiens, UniProt Q93009). The test is described as follows: USP7 inhibitory potency (Table 1). The format is biochemical.
Chain of USP7 (Q93009 whole entry): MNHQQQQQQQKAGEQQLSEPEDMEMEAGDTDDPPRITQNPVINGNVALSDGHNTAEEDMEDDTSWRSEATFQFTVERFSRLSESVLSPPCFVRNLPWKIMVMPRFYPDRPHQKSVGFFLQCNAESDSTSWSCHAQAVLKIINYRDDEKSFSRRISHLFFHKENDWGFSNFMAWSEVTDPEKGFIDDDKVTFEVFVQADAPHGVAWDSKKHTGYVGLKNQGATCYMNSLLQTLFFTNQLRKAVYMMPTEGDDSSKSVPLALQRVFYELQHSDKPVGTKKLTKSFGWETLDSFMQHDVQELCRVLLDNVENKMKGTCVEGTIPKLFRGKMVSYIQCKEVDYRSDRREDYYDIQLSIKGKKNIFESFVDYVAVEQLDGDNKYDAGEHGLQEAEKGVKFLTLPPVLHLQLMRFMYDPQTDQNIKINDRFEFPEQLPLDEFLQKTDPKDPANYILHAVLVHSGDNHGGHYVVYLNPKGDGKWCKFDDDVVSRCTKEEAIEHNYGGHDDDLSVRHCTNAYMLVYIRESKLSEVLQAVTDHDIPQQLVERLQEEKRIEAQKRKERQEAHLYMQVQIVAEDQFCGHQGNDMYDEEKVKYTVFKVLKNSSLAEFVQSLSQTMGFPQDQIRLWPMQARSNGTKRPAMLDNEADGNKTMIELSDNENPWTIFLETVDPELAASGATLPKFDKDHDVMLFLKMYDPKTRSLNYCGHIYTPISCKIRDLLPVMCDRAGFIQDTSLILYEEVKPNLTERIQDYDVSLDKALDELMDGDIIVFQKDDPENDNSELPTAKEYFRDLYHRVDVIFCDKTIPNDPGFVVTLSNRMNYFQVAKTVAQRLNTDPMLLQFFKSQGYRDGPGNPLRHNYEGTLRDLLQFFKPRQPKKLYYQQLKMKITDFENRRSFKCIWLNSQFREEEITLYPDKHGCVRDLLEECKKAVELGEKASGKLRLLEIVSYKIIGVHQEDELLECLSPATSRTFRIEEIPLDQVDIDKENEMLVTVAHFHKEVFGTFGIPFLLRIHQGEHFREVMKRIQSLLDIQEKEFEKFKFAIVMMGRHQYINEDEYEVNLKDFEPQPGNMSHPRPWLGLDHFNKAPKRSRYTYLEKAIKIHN
In turn, `O=C([C@H]1Cc2cc(Cl)cc(-c3ccnc4cc(CO)sc34)c2O1)N1CCn2ccnc2C1` [(R)-(5-chloro-7-(2-(hydroxymethyl)thieno[3,2-b]pyridin-7-yl)-2,3-dihydrobenzofuran-2-yl)(5,6-dihydroimidazo[1,2-a]pyrazin-7(8H)-yl)methanone] displayed a half-maximal inhibitory concentration (IC50) of under 1000 nM.

On to `CCC(O)c1cc2nccc(-c3cc(Cl)cc4c3OC(CN3CCNCC3)C4)c2s1` (stereo not drawn) [1-(7-(5-chloro-2-(piperazin-1-ylmethyl)-2,3-dihydrobenzofuran-7-yl)thieno[3,2-b]pyridin-2-yl)propan-1-ol], for which the IC50 is 10000 to 30000 nM.

`CN1CCC(=O)N(Cc2cc3nccc(-c4cc(Cl)cc5c4O[C@@H](C(=O)N4CCNCC4)C5)c3s2)C1=O` [(R)-3-((7-(5-chloro-2-(piperazine-1-carbonyl)-2,3-dihydrobenzofuran-7-yl)thieno[3,2-b]pyridin-2-yl)methyl)-1-methyldihydropyrimidine-2,4(1H,3H)-dione] came in with an IC50 of under 1000 nM.

In turn, `O=C(C1Cc2cc(Cl)cc(-c3ccnc4[nH]ccc34)c2O1)N1CCC(c2ccc(O)cc2)CC1` (stereo not drawn) [(5-chloro-7-(1H-pyrrolo[2,3-b]pyridin-4-yl)-2,3-dihydrobenzofuran-2-yl)(4-(4-hydroxyphenyl)piperidin-1-yl)methanone] registered a half-maximal inhibitory concentration (IC50) of 10000 to 30000 nM.

`CCC(O)c1cc2ncnc(-c3cc(Cl)cc4c3O[C@@H](C(=O)N3CCNCC3)C4)c2s1` (stereo partly drawn) [((2R)-5-chloro-7-(6-(1-hydroxypropyl)thieno[3,2-d]pyrimidin-4-yl)-2,3-dihydrobenzofuran-2-yl)(piperazin-1-yl)methanone]: the half-maximal inhibitory concentration (IC50) was under 1000 nM.

For `CCC1(CO)Cc2nccc(-c3cc(Cl)cc4c3O[C@@H](C(=O)N3CCNCC3)C4)c2C1` (stereo partly drawn) [((2R)-5-chloro-7-(6-ethyl-6-(hydroxymethyl)-6,7-dihydro-5H-cyclopenta[b]pyridin-4-yl)-2,3-dihydrobenzofuran-2-yl)(piperazin-1-yl)methanone], the IC50 lay within 1000 to 10000 nM.

With `Clc1cc2c(c(-c3ccnc4[nH]ccc34)c1)OC(c1onc3c1CNCC3)C2` (stereo not drawn) [3-(5-chloro-7-(1H-pyrrolo[2,3-b]pyridin-4-yl)-2,3-dihydrobenzofuran-2-yl)-4,5,6,7-tetrahydroisoxazolo[4,3-c]pyridine], the IC50 is under 1000 nM.

For `Clc1cc2c(c(-c3ccnc4[nH]ccc34)c1)OC(c1onc3c1CCNC3)C2` (stereo not drawn) [3-(5-chloro-7-(1H-pyrrolo[2,3-b]pyridin-4-yl)-2,3-dihydrobenzofuran-2-yl)-4,5,6,7-tetrahydroisoxazolo[3,4-c]pyridine], the IC50 fell in the range of 1000 to 10000 nM.

As to `CNC(=O)C1Cc2nccc(-c3cc(Cl)cc4c3O[C@@H](c3onc5c3CNCC5)C4)c2C1` (stereo partly drawn) [4-((R)-5-chloro-2-(4,5,6,7-tetrahydroisoxazolo[4,3-c]pyridin-3-yl)-2,3-dihydrobenzofuran-7-yl)-N-methyl-6,7-dihydro-5H-cyclopenta[b]pyridine-6-carboxamide], the IC50 lay in the range of 1000 to 10000 nM.

Consider `O=C(C1Cc2cc(Cl)cc(-c3ccnc4[nH]ccc34)c2O1)N1CCC(O)(c2ccccn2)CC1` (stereo not drawn) [(5-chloro-7-(1H-pyrrolo[2,3-b]pyridin-4-yl)-2,3-dihydrobenzofuran-2-yl)(4-hydroxy-4-(pyridin-2-yl)piperidin-1-yl)methanone], for which the IC50 lay in the range of 1000 to 10000 nM.

`Clc1cc2c(c(-c3ccncc3)c1)OC(c1onc3c1CNCC3)C2` (stereo not drawn) [3-(5-chloro-7-(pyridin-4-yl)-2,3-dihydrobenzofuran-2-yl)-4,5,6,7-tetrahydroisoxazolo[4,3-c]pyridine] came in with an IC50 of 1000 to 10000 nM.

In the case of `OCc1cc2nccc(-c3cc(Cl)cc4c3OC(c3onc5c3CNCC5)C4)n2n1` (stereo not drawn) [(7-(5-chloro-2-(4,5,6,7-tetrahydroisoxazolo[4,3-c]pyridin-3-yl)-2,3-dihydrobenzofuran-7-yl)pyrazolo[1,5-a]pyrimidin-2-yl)methanol], the IC50 was 1000 to 10000 nM.

As to `N#Cc1ccc2nccc(-c3cc(Cl)cc4c3O[C@@H](c3onc5c3CNCC5)C4)c2c1` [(R)-4-(5-chloro-2-(4,5,6,7-tetrahydroisoxazolo[4,3-c]pyridin-3-yl)-2,3-dihydrobenzofuran-7-yl)quinoline-6-carbonitrile], the IC50 was 1000 to 10000 nM.

For `Clc1cc2c(c(-c3ccnc4ccsc34)c1)O[C@@H](c1[nH]nc3c1CNCC3)C2` [(R)-7-(5-chloro-2-(4,5,6,7-tetrahydro-2H-pyrazolo[4,3-c]pyridin-3-yl)-2,3-dihydrobenzofuran-7-yl)thieno[3,2-b]pyridine], the IC50 is under 1000 nM.

Compound `CN(C)C1CCc2nn(C)c([C@H]3Cc4cc(Cl)cc(-c5ccnc6cc(CO)sc56)c4O3)c2C1` (stereo partly drawn) [(7-((2R)-5-chloro-2-(5-(dimethylamino)-2-methyl-4,5,6,7-tetrahydro-2H-indazol-3-yl)-2,3-dihydrobenzofuran-7-yl)thieno[3,2-b]pyridin-2-yl)methanol] yielded an IC50 of under 1000 nM.

`O=C(C1Cc2cc(Cl)cc(-c3ccnc4ccccc34)c2O1)N1CCNCC1` (stereo not drawn) [(5-chloro-7-(quinolin-4-yl)-2,3-dihydrobenzofuran-2-yl)(piperazin-1-yl)methanone]: the IC50 lay in the range of 1000 to 10000 nM.

In turn, `N#Cc1ccc2c(-c3cc(Cl)cc4c3OC(C(=O)N3CCNCC3)C4)ccnc2c1` (stereo not drawn) [4-(5-chloro-2-(piperazine-1-carbonyl)-2,3-dihydrobenzofuran-7-yl)quinoline-7-carbonitrile] showed an IC50 of under 1000 nM.

`OCc1cc2nccc(-c3cc(Cl)cc4c3O[C@@H](c3onc5c3CNCC5)CC4)c2s1` [(R)-(7-(6-chloro-2-(4,5,6,7-tetrahydroisoxazolo[4,3-c]pyridin-3-yl)chroman-8-yl)thieno[3,2-b]pyridin-2-yl)methanol] showed an IC50 of under 1000 nM.

Take `COc1cccc2c(-c3cc(Cl)cc4c3OC(C(=O)N3CCNCC3)C4)ccnc12` (stereo not drawn) [(5-chloro-7-(8-methoxyquinolin-4-yl)-2,3-dihydrobenzofuran-2-yl)(piperazin-1-yl)methanone]: the IC50 fell in the range of 10000 to 30000 nM.

For `Fc1ccc2nccc(-c3cc(Cl)cc4c3O[C@@H](c3onc5c3CNCC5)C4)c2c1` [(R)-3-(5-chloro-7-(6-fluoroquinolin-4-yl)-2,3-dihydrobenzofuran-2-yl)-4,5,6,7-tetrahydroisoxazolo[4,3-c]pyridine], the half-inhibitory concentration (IC50) is under 1000 nM.

`CS(=O)(=O)NCc1cc2nccc(-c3cc(Cl)cc4c3O[C@@H](C(=O)N3CCNCC3)C4)c2s1` [(R)-N-((7-(5-chloro-2-(piperazine-1-carbonyl)-2,3-dihydrobenzofuran-7-yl)thieno[3,2-b]pyridin-2-yl)methyl)methanesulfonamide] returned an IC50 of under 1000 nM.

As for `O=C(C1Cc2cc(Cl)cc(-c3ccnc4[nH]ccc34)c2O1)N1CCN[C@@H](CO)C1` (stereo partly drawn) [(5-chloro-7-(1H-pyrrolo[2,3-b]pyridin-4-yl)-2,3-dihydrobenzofuran-2-yl)((R)-3-(hydroxymethyl)piperazin-1-yl)methanone], the IC50 was 1000 to 10000 nM.

Regarding `Clc1cc2c(c(-c3ccnc4ccsc34)c1)O[C@@H](c1ocnc1CN1CCC1)C2` [(R)-4-(azetidin-1-ylmethyl)-5-(5-chloro-7-(thieno[3,2-b]pyridin-7-yl)-2,3-dihydrobenzofuran-2-yl)oxazole], the IC50 is under 1000 nM.

The compound `Clc1cc2c(c(-c3ccnc4ccnn34)c1)OC(c1onc3c1CNCC3)C2` (stereo not drawn) [3-(5-chloro-7-(pyrazolo[1,5-a]pyrimidin-7-yl)-2,3-dihydrobenzofuran-2-yl)-4,5,6,7-tetrahydroisoxazolo[4,3-c]pyridine] displayed an IC50 of 1000 to 10000 nM.

For the compound `O=C([C@H]1Cc2cc(Cl)cc(-c3ccnc4cc(CCN5C(=O)c6ccccc6C5=O)sc34)c2O1)N1CCNCC1` [(R)-2-(2-(7-(5-chloro-2-(piperazine-1-carbonyl)-2,3-dihydrobenzofuran-7-yl)thieno[3,2-b]pyridin-2-yl)ethyl)isoindoline-1,3-dione], the IC50 was under 1000 nM.

`CN1CCc2noc([C@H]3Cc4cc(Cl)cc(-c5ccnc6cc(C#N)ccc56)c4O3)c2C1` [(R)-4-(5-chloro-2-(5-methyl-4,5,6,7-tetrahydroisoxazolo[4,3-c]pyridin-3-yl)-2,3-dihydrobenzofuran-7-yl)quinoline-7-carbonitrile] gave an IC50 of 1000 to 10000 nM.

For `CCC(O)c1cc2nccc(-c3cc(Cl)cc4c3OC(c3onc5c3CNCC5)C4)n2n1` (stereo not drawn) [1-(7-(5-chloro-2-(4,5,6,7-tetrahydroisoxazolo[4,3-c]pyridin-3-yl)-2,3-dihydrobenzofuran-7-yl)pyrazolo[1,5-a]pyrimidin-2-yl)propan-1-ol], the IC50 lay within 1000 to 10000 nM.

For `CCN1CCc2noc([C@H]3Cc4cc(Cl)cc(-c5ccnc6ccsc56)c4O3)c2C1` [(R)-3-(5-chloro-7-(thieno[3,2-b]pyridin-7-yl)-2,3-dihydrobenzofuran-2-yl)-5-ethyl-4,5,6,7-tetrahydroisoxazolo[4,3-c]pyridine], the IC50 is under 1000 nM.

Compound `O=C(C1Cc2cc(Cl)cc(-c3ccnc4[nH]ccc34)c2O1)N1CCN(C2CCNCC2)CC1` (stereo not drawn) [(5-chloro-7-(1H-pyrrolo[2,3-b]pyridin-4-yl)-2,3-dihydrobenzofuran-2-yl)(4-(piperidin-4-yl)piperazin-1-yl)methanone] came in with an IC50 of 10000 to 30000 nM.

`CC(NCc1cc2nccc(-c3cc(Cl)cc4c3O[C@@H](c3onc5c3CNCC5)C4)c2s1)C(F)(F)F` (stereo partly drawn) [N-((7-((R)-5-chloro-2-(4,5,6,7-tetrahydroisoxazolo[4,3-c]pyridin-3-yl)-2,3-dihydrobenzofuran-7-yl)thieno[3,2-b]pyridin-2-yl)methyl)-1,1,1-trifluoropropan-2-amine] had an IC50 of under 1000 nM.

As to `Cc1cc2ncnc(-c3cc(Cl)cc4c3O[C@@H](C(=O)N3CCNCC3)C4)c2s1` [(R)-(5-chloro-7-(6-methylthieno[3,2-d]pyrimidin-4-yl)-2,3-dihydrobenzofuran-2-yl)(piperazin-1-yl)methanone], the IC50 was under 1000 nM.

Consider `O=C([C@H]1Cc2cc(Cl)cc(-c3ccnc4cc(CO)sc34)c2O1)N1CCC(N2CCCCC2)CC1` [(R)-[1,4′-bipiperidin]-1′-yl(5-chloro-7-(2-(hydroxymethyl)thieno[3,2-b]pyridin-7-yl)-2,3-dihydrobenzofuran-2-yl)methanone], for which the IC50 was under 1000 nM.

`CC(O)c1ccc2c(-c3cc(Cl)cc4c3O[C@@H](c3onc5c3CNCC5)C4)ccnc2c1` (stereo partly drawn) [1-(4-((R)-5-chloro-2-(4,5,6,7-tetrahydroisoxazolo[4,3-c]pyridin-3-yl)-2,3-dihydrobenzofuran-7-yl)quinolin-7-yl)ethan-1-ol] returned an IC50 of under 1000 nM.

What is called IC50 is the concentration that inhibits the measured activity by half.

The values above are taken from US20210317134A1, “UBIQUITIN-SPECIFIC-PROCESSING PROTEASE 7 (USP7) MODULATORS AND USES THEREOF” (RAPT THERAPEUTICS, INC., priority 2019, published 2021).
